Source: patent US20050112573A1, “Method of detecting toxic substance” (priority 2001, published 2005)

Test system: yeast genes (level of expressed mRNA)
Experiment: DNA chip analysis of expressed mRNA of yeast genes after 2 h culture with a toxic chemical substance
Type: cell-based, Saccharomyces cerevisiae S288C
Description: Yeast (Saccharomyces cerevtisiae S288C (α SUC2mal mel gap2 CUP1)) were cultured at 25° C. on YPD medium (yeast extract 1%, polypepton 2%, glucose 2%). One of toxic chemical substances was added to the cell at logarithmic growth phase, and the cell was further cultured for two hours. Cell was cultured without any chemical substance in the same condition, and was used as control. Concentrations of the chemical substances were defined to inhibit the growth of the yeast but not lead to death.
After the completion of cultivation, the culture was centrifuged to collect the cells. To the cells, sodium acetate buffer (50 mM sodium acetate, 10 mM EDTA, 1% SDS) was added, and the mixture was shaken at 65° C. for five minutes, followed by returning to room temperature, and obtaining the supernatant, which procedure was repeated two times. To the supernatant, ½ amount of a solution of phenol/chloroform was added, and the mixture was centrifuged to give a supernatant, which was added with an equal amount of chloroform, and the mixture was centrifuged to give a supernatant. To the supernatant, an equal amount of isopropanol containing 0.3 M sodium acetate was added, and the mixture was allowed to stand at room temperature for 30 minutes, after which the mixture was centrifuged to give a sediment of the whole RNAs. Seventy % ethanol was added to the sediment, and the mixture was again centrifuged to give a sediment, which was then dried and dissolved in water. mRNA was isolated from the whole RNAs as followings. In view of the fact that a poly A chain is attached to the 3′ terminus of mRNA, a polynucleotide having a poly T structure which was immobilized on the surface of latex beads was used to trap the mRNA, and then the mRNA was washed and eluted with spine column (Oligotex-dT30<Super>mRNA Purification Kit, Takara). Reverse transcription of the mRNA was conducted with a reverse transcriptase (Super Script II Reverse Transcriptase; catalogue No. 18064-014, GibcoBRL) using fluorescence-labeled nucleotides to give cDNAs that were introduced with Cy3-dUTP or Cy5-dUTP during the reverse transcription.
The labeled cDNAs were dissolved in TE buffer (10 mM Tris-HCl/1 mM EDTA, pH8.0), and the solution was dropped on the DNA chip containing the whole genes of yeast (DNA Chip Research Inc. Japan) so that the cDNAs were hybridized on the DNA chip at 65° C. for over 12 hours. The fluoresces intensity of the DNA chip was read with a scanner, and the ratio relative to the fluorescence intensity resulting from the absence of chemical substance was estimated as the following, which is shown in Tables 1 to 9: [formula]
In the Tables, “Intensity” indicated in the rightmost column is a value of the level of expressed mRNA of each gene in control cells as divided by the average level of the expressions of the whole genes.

Question: Na2As [(1)] was tested. Which “The level of expressed mRNA in the presence of chemical substance/” value (yeast gene YFL010C, ratio to control without chemical substance, 2 h culture) did it give?
Answer: 1.0

Question: And the “The level of expressed mRNA in the presence of chemical substance/” value (yeast gene YFL024C, ratio to control without chemical substance, 2 h culture)?
Answer: 1.0

Question: What about the “The level of expressed mRNA in the presence of chemical substance/The level of expressed mRNA in the absence of chemical substance” value (yeast gene YFL028C) of the same substance?
Answer: 1.2

Question: And the “The level of expressed mRNA in the presence of chemical substance/” value (yeast gene YFL032W, ratio to control without chemical substance, 2 h culture)?
Answer: 0.4

Question: And the “The level of expressed mRNA in the presence of chemical substance/The level of expressed mRNA in the absence of chemical substance” value (yeast gene YFL043C)?
Answer: 1.0

Question: What about the “The level of expressed mRNA in the presence of chemical substance/in the absence of chemical substance” value (yeast gene YGL035C) of the same substance?
Answer: 0.7

Question: And the “The level of expressed mRNA in the presence of chemical substance/” value (yeast gene YGL037C, ratio to control without chemical substance, 2 h culture)?
Answer: 1.5

Question: And the “The level of expressed mRNA in the presence of chemical substance/” value (yeast gene YGL047W, ratio to control without chemical substance, 2 h culture)?
Answer: 1.0

Question: What about the “The level of expressed mRNA in the presence of chemical substance/” value (yeast gene YGL053W, ratio to control without chemical substance, 2 h culture) of the same substance?
Answer: 1.5

Question: And the “The level of expressed mRNA in the presence of chemical substance/” value (yeast gene YGL121C, ratio to control without chemical substance, 2 h culture)?
Answer: 2.6

Question: What about the “The level of expressed mRNA in the presence of chemical substance/The level of expressed mRNA in the absence of chemical substance” value (yeast gene YGL158W) of the same substance?
Answer: 1.1

Question: What about the “The level of expressed mRNA in the presence of chemical substance/” value (yeast gene YGL199C, ratio to control without chemical substance, 2 h culture) of the same substance?
Answer: 1.1

Question: What about the “The level of expressed mRNA in the presence of chemical substance/The level of expressed mRNA in the absence of chemical substance” value (yeast gene YGL229C) of the same substance?
Answer: 0.6

Question: And the “The level of expressed mRNA in the presence of chemical substance/” value (yeast gene YGR101W, ratio to control without chemical substance, 2 h culture)?
Answer: 1.0

Question: What about the “The level of expressed mRNA in the presence of chemical substance/” value (yeast gene YGR110W, ratio to control without chemical substance, 2 h culture) of the same substance?
Answer: 1.6

Question: And the “The level of expressed mRNA in the presence of chemical substance/” value (yeast gene YGR130C, ratio to control without chemical substance, 2 h culture)?
Answer: 0.9

Question: And the “The level of expressed mRNA in the presence of chemical substance/The level of expressed mRNA in the absence of chemical substance” value (yeast gene YGR136W)?
Answer: 0.9

Question: What about the “The level of expressed mRNA in the presence of chemical substance/” value (yeast gene YGR154C, ratio to control without chemical substance, 2 h culture) of the same substance?
Answer: 1.8

Question: And the “The level of expressed mRNA in the presence of chemical substance/The level of expressed mRNA in the absence of chemical substance” value (yeast gene YGR189C)?
Answer: 1.1

Question: What about the “The level of expressed mRNA in the presence of chemical substance/The level of expressed mRNA in the absence of chemical substance” value (yeast gene YGR213C) of the same substance?
Answer: 5.4

Question: And the “The level of expressed mRNA in the presence of chemical substance/” value (yeast gene YGR221C, ratio to control without chemical substance, 2 h culture)?
Answer: 0.9

Question: And the “The level of expressed mRNA in the presence of chemical substance/The level of expressed mRNA in the absence of chemical substance” value (yeast gene YGR257C)?
Answer: 0.7

Question: And the “The level of expressed mRNA in the presence of chemical substance/in the absence of chemical substance” value (yeast gene YGR287C)?
Answer: 1.3

Question: What about the “The level of expressed mRNA in the presence of chemical substance/The level of expressed mRNA in the absence of chemical substance” value (yeast gene YHR004C) of the same substance?
Answer: 0.9

Question: And the “The level of expressed mRNA in the presence of chemical substance/The level of expressed mRNA in the absence of chemical substance” value (yeast gene YHR071W)?
Answer: 1.5

Question: What about the “The level of expressed mRNA in the presence of chemical substance/” value (yeast gene YHR138C, ratio to control without chemical substance, 2 h culture) of the same substance?
Answer: 2.8

Question: And the “The level of expressed mRNA in the presence of chemical substance/The level of expressed mRNA in the absence of chemical substance” value (yeast gene YHR139C)?
Answer: 3.0

Question: And the “The level of expressed mRNA in the presence of chemical substance/The level of expressed mRNA in the absence of chemical substance” value (yeast gene YHR142W)?
Answer: 1.5

Question: And the “The level of expressed mRNA in the presence of chemical substance/” value (yeast gene YHR199C, ratio to control without chemical substance, 2 h culture)?
Answer: 1.9

Question: What about the “The level of expressed mRNA in the presence of chemical substance/” value (yeast gene YIL023C, ratio to control without chemical) of the same substance?
Answer: 1.1

Question: And the “The level of expressed mRNA in the presence of chemical substance/” value (yeast gene YIL041W, ratio to control without chemical substance, 2 h culture)?
Answer: 1.0

Question: And the “The level of expressed mRNA in the presence of chemical substance/” value (yeast gene YIL087C, ratio to control without chemical substance, 2 h culture)?
Answer: 1.3

Question: And the “The level of expressed mRNA in the presence of chemical substance/The level of expressed mRNA in the absence of chemical substance” value (yeast gene YIL123W)?
Answer: 1.0

Question: What about the “The level of expressed mRNA in the presence of chemical substance/The level of expressed mRNA in the absence of chemical substance” value (yeast gene YIL140W) of the same substance?
Answer: 0.7

Question: And the “The level of expressed mRNA in the presence of chemical substance/” value (yeast gene YJL057C, ratio to control without chemical substance, 2 h culture)?
Answer: 1.5

Question: What about the “The level of expressed mRNA in the presence of chemical substance/” value (yeast gene YJL066C, ratio to control without chemical substance, 2 h culture) of the same substance?
Answer: 0.9

Question: And the “The level of expressed mRNA in the presence of chemical substance/in the absence of chemical substance” value (yeast gene YJL070C)?
Answer: 1.3

Question: What about the “The level of expressed mRNA in the presence of chemical substance/The level of expressed mRNA in the absence of chemical substance” value (yeast gene YJL073W) of the same substance?
Answer: 0.8

Question: And the “The level of expressed mRNA in the presence of chemical substance/” value (yeast gene YJL082W, ratio to control without chemical substance, 2 h culture)?
Answer: 1.4

Question: What about the “The level of expressed mRNA in the presence of chemical substance/The level of expressed mRNA in the absence of chemical substance” value (yeast gene YJL089W) of the same substance?
Answer: 1.1

Question: And the “The level of expressed mRNA in the presence of chemical substance/The level of expressed mRNA in the absence of chemical substance” value (yeast gene YJL116C)?
Answer: 0.9

Question: And the “The level of expressed mRNA in the presence of chemical substance/” value (yeast gene YJL151C, ratio to control without chemical substance, 2 h culture)?
Answer: 1.0

Question: What about the “The level of expressed mRNA in the presence of chemical substance/” value (yeast gene YJL152W, ratio to control without chemical substance, 2 h culture) of the same substance?
Answer: 0.9

Question: And the “The level of expressed mRNA in the presence of chemical substance/” value (yeast gene YJL161W, ratio to control without chemical substance, 2 h culture)?
Answer: 1.7

Question: What about the “The level of expressed mRNA in the presence of chemical substance/in the absence of chemical substance” value (yeast gene YJL167W) of the same substance?
Answer: 0.9

Question: And the “The level of expressed mRNA in the presence of chemical substance/” value (yeast gene YJL171C, ratio to control without chemical substance, 2 h culture)?
Answer: 2.3

Question: And the “The level of expressed mRNA in the presence of chemical substance/in the absence of chemical substance” value (yeast gene YJL216C)?
Answer: 0.8

Question: And the “The level of expressed mRNA in the presence of chemical substance/The level of expressed mRNA in the absence of chemical substance” value (yeast gene YJR004C)?
Answer: 0.2

Question: What about the “The level of expressed mRNA in the presence of chemical substance/” value (yeast gene YJR008W, ratio to control without chemical substance, 2 h culture) of the same substance?
Answer: 1.6

Question: What about the “The level of expressed mRNA in the presence of chemical substance/” value (yeast gene YJR054W, ratio to control without chemical) of the same substance?
Answer: 0.8

Question: What about the “The level of expressed mRNA in the presence of chemical substance/The level of expressed mRNA in the absence of chemical substance” value (yeast gene YJR086W) of the same substance?
Answer: 1.2

Question: What about the “The level of expressed mRNA in the presence of chemical substance/The level of expressed mRNA in the absence of chemical substance” value (yeast gene YKL008C) of the same substance?
Answer: 1.2

Question: And the “The level of expressed mRNA in the presence of chemical substance/The level of expressed mRNA in the absence of chemical substance” value (yeast gene YKL013C)?
Answer: 1.4

Question: What about the “The level of expressed mRNA in the presence of chemical substance/The level of expressed mRNA in the absence of chemical substance” value (yeast gene YKL039W) of the same substance?
Answer: 0.8

Question: What about the “The level of expressed mRNA in the presence of chemical substance/The level of expressed mRNA in the absence of chemical substance” value (yeast gene YKL041W) of the same substance?
Answer: 1.2

Question: What about the “The level of expressed mRNA in the presence of chemical substance/” value (yeast gene YKL071W, ratio to control without chemical substance, 2 h culture) of the same substance?
Answer: 8.3
